Laboratory results as given in PubChem BioAssay (NCI).
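Assay format: 96-well plates, 48-hour exposure. At the TGI there is no net growth.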

How the values were obtained:
Experiment in all cases: NCI anticancer screen, dose series, 48 h
[1] = test system: 786-0 renal
[2] = test system: A498 renal
[3] = test system: A549 NSCLC
[4] = test system: ACHN renal
[5] = test system: CAKI-1 renal
[6] = test system: CCRF-CEM leukemia
[7] = test system: COLO 205 colon
[8] = test system: DLD-1 colon
[9] = test system: DMS 114 small cell lung
[10] = test system: DMS 273 small cell lung
[11] = test system: EKVX NSCLC
[12] = test system: HCC-2998 colon
[13] = test system: HCT-116 colon
[14] = test system: HCT-15 colon
[15] = test system: HL-60(TB) leukemia
[16] = test system: HOP-18 NSCLC
[17] = test system: HOP-62 NSCLC
[18] = test system: HOP-92 NSCLC
[19] = test system: HT29 colon
[20] = test system: IGROV1 ovarian
[21] = test system: K-562 leukemia
[22] = test system: KM12 colon
[23] = test system: KM20L2 colon
[24] = test system: LOX IMVI melanoma
[25] = test system: LXFL 529 NSCLC
[26] = test system: M14 melanoma
[27] = test system: M19-MEL melanoma
[28] = test system: MALME-3M melanoma
[29] = test system: MOLT-4 leukemia
[30] = test system: NCI-H226 lung
[31] = test system: NCI-H23 lung
[32] = test system: NCI-H460 lung
[33] = test system: NCI-H522 lung
[34] = test system: OVCAR-3 ovarian
[35] = test system: OVCAR-4 ovarian
[36] = test system: OVCAR-5 ovarian
[37] = test system: OVCAR-8 ovarian
[38] = test system: RPMI-8226 leukemia
[39] = test system: RXF 393 renal
[40] = test system: RXF-631 renal
[41] = test system: SF-268 CNS
[42] = test system: SF-295 CNS
[43] = test system: SK-MEL-28 melanoma
[44] = test system: SK-OV-3 ovarian
[45] = test system: SN12C renal
[46] = test system: SNB-19 CNS
[47] = test system: SNB-75 CNS
[48] = test system: SNB-78 CNS
[49] = test system: SR leukemia
[50] = test system: SW-620 colon
[51] = test system: TK-10 renal
[52] = test system: U251 CNS
[53] = test system: UACC-257 melanoma
[54] = test system: UACC-62 melanoma
[55] = test system: UO-31 renal
[56] = test system: XF 498 CNS
[57] = test system: SF-539 CNS
[58] = test system: SK-MEL-2 melanoma
[59] = test system: SK-MEL-5 melanoma

## O=C(Nc1cc(Cl)c(Cl)cc1Cl)C(=O)C(C(=O)c1ccccc1)C1OC(=O)c2ccccc21 (centres undefined)
[1]
  TGI: > 100 µM
[2]
  TGI: > 100 µM
[3]
  TGI: > 100 µM
[4]
  TGI: > 100 µM
[5]
  TGI: > 100 µM
[6]
  TGI: > 100 µM
[7]
  TGI: > 100 µM
[8]
  TGI: > 100 µM
[9]
  TGI: > 100 µM
[10]
  TGI: > 100 µM
[11]
  TGI: > 100 µM
[12]
  TGI: > 100 µM
[13]
  TGI: > 100 µM
[14]
  TGI: > 100 µM
[15]
  TGI: > 100 µM
[16]
  TGI: > 100 µM
[17]
  TGI: > 100 µM
[18]
  TGI: > 100 µM
[19]
  TGI: > 100 µM
[20]
  TGI: > 100 µM
[21]
  TGI: > 100 µM
[22]
  TGI: > 100 µM
[23]
  TGI: > 100 µM
[24]
  TGI: > 100 µM
[25]
  TGI: > 100 µM
[26]
  TGI: > 100 µM
[27]
  TGI: > 100 µM
[28]
  TGI: > 100 µM
[29]
  TGI: > 100 µM
[30]
  TGI: > 100 µM
[31]
  TGI: > 100 µM
[32]
  TGI: > 100 µM
[33]
  TGI: > 100 µM
[34]
  TGI: > 100 µM
[35]
  TGI: > 100 µM
[36]
  TGI: > 100 µM
[37]
  TGI: > 100 µM
[38]
  TGI: > 100 µM
[39]
  TGI: > 100 µM
[40]
  TGI: > 100 µM
[41]
  TGI: > 100 µM
[42]
  TGI: > 100 µM
[43]
  TGI: > 100 µM
[44]
  TGI: > 100 µM
[45]
  TGI: > 100 µM
[46]
  TGI: > 100 µM
[47]
  TGI: > 100 µM
[48]
  TGI: > 100 µM
[49]
  TGI: > 100 µM
[50]
  TGI: > 100 µM
[51]
  TGI: > 100 µM
[52]
  TGI: > 100 µM
[53]
  TGI: > 100 µM
[54]
  TGI: > 100 µM
[55]
  TGI: > 100 µM
[56]
  TGI: > 100 µM

## CCSC1=CC(Cc2ccc(OC)cc2)N(C(=O)OC)C1 (centres undefined)
[1]
  TGI: > 100 µM
[2]
  TGI: > 100 µM
[3]
  TGI: > 100 µM
[4]
  TGI: > 100 µM
[5]
  TGI: > 100 µM
[6]
  TGI: > 100 µM
[7]
  TGI: > 100 µM
[8]
  TGI: > 100 µM
[9]
  TGI: 73.7 µM
[10]
  TGI: > 100 µM
[11]
  TGI: > 100 µM
[12]
  TGI: > 100 µM
[13]
  TGI: > 100 µM
[14]
  TGI: > 100 µM
[15]
  TGI: 60.1 µM
[16]
  TGI: > 100 µM
[17]
  TGI: > 100 µM
[18]
  TGI: > 100 µM
[19]
  TGI: > 100 µM
[20]
  TGI: > 100 µM
[21]
  TGI: > 100 µM
[22]
  TGI: > 100 µM
[23]
  TGI: > 100 µM
[24]
  TGI: > 100 µM
[25]
  TGI: > 100 µM
[26]
  TGI: > 100 µM
[27]
  TGI: > 100 µM
[28]
  TGI: > 100 µM
[29]
  TGI: > 100 µM
[30]
  TGI: > 100 µM
[31]
  TGI: > 100 µM
[32]
  TGI: > 100 µM
[33]
  TGI: > 100 µM
[34]
  TGI: > 100 µM
[35]
  TGI: > 100 µM
[36]
  TGI: > 100 µM
[37]
  TGI: > 100 µM
[39]
  TGI: > 100 µM
[40]
  TGI: > 100 µM
[41]
  TGI: > 100 µM
[42]
  TGI: > 100 µM
[57]
  TGI: > 100 µM
[58]
  TGI: > 100 µM
[43]
  TGI: > 100 µM
[59]
  TGI: > 100 µM
[44]
  TGI: > 100 µM
[45]
  TGI: > 100 µM
[46]
  TGI: > 100 µM
[47]
  TGI: > 100 µM
[48]
  TGI: > 100 µM
[49]
  TGI: > 100 µM
[50]
  TGI: > 100 µM
[51]
  TGI: > 100 µM
[52]
  TGI: > 100 µM
[53]
  TGI: > 100 µM
[54]
  TGI: > 100 µM
[55]
  TGI: > 100 µM
[56]
  TGI: > 100 µM
